Measured values as given in patent US20150306045A1, “METHOD OF REGULATING CIRCADIAN RHYTHM, AND METHOD OF PREPARING CIRCADIAN RHYTHM REGULATORY AGENT” (National Institute of Advanced Industrial Science & …, priority 2012, published 2015).

Test system: clock gene Bmall promoter in NIH3T3 cells
Assay: Bmall promoter luciferase reporter, influence on expression of circadian clock gene (Test Example 1)
Format: cell-based, mouse
Details: Example 1, 12.5 μM in medium, NIH3T3, vs ethanol control, FIG. 1
Protocol: The circadian rhythm regulatory agents of Examples 1 to 3 (i.e., 1,3-dihydroxy-5-n-pentadecylbenzene, alkylresorcinol-containing ethanolic bran extract, and alkylresorcinol-containing ethanolic rye extract) were evaluated for the influence on expression of circadian clock gene in accordance with the following test method.
To prepare a recombination vector, the promoter regions of a clock gene Bmall (−97 to +27 regions including the RORE sequence and the transcription initiation site) were inserted into a luciferase luminescence vector containing a PEST sequence serving as a signal for rapid degradation of expressed proteins (pGL3-dLuc, from Promega). About 5×10^5 cells of mouse fibroblast cell line NIH3T3 were inoculated into a 35 mm diameter culture dish. […]
Screening of candidate substances was performed using the culture cells. […] Then, a test substance was added to a medium containing a luciferin, (a luminescence substrate of […]), and chemiluminescence by the reporter genes was measured in real-time while continuing the cell culture. […] As a control, ethanol, which is the solvent of the test substance, was added at the same timing, and the changes in amount of luminescence were compared. Luminescence was measured for one minute at 10 minute interval using AB-2550 Kronos Dia from ATTO Corp.

CCCCCCCCCCCCCCCc1cc(O)cc(O)c1 [Example 1, 1,3-Dihydhroxy-5-n-pentadecylbenzene (C15:0)]
circadian rhythm phase of Bmall expression: delays the circadian rhythm phase | shortening of the cycle of Bmall expression rhythm: 0.5 h
